pIC50: −log10 of the molar value. Like-named read-outs stand apart in the source and are kept apart here.
Assays:
hERG channels = target: T1, hERG channels (Homo sapiens, UniProt Q12809); experiment: hERG assay, whole-cell patch-clamp in CHO-hERG cells; format: cell-based; conditions: for pIC50: whole-cell patch-clamp, CHO-hERG cells
T1 construct: host or cells: CHO-hERG cells
Description: CHO-hERG cells (Sophion Biosciences (Ballerup, Denmark), subcultured and frozen in WuXi AppTec (Suzhou) Co., Ltd.), stored in liquid nitrogen, were tested and determined to be free from mycoplasma contamination. Cells were not used after the 30th passage. CHO-hERG cells were cultured in a humidified incubator of 5% CO2 (4% to 8%) in air at 37° C. (±2° C.). The cells were recovered with recovery medium (F12 medium with 10% fetal bovine serum), subcultured in complete medium (F12 medium, supplemented with 10% fetal bovine serum, 1% Geneticin® selective antibiotic (G418), 89 μg/mL Hygromycin B (HB)), and the culture medium was switched to recovery medium in the last subculture before patch-clamp experiment.
To determine the compounds' IC50, select compounds (“test articles”) were dissolved into DMSO, and then diluted with ECS to get working solutions. Five concentrations of 0.3, 1, 3, 10, and 30 μM were tested. Two replicate cells for each concentration were tested.
Exponentially growing CHO-hERG cells were collected and suspended in extracellular solution for use. The hERG current was recorded at physiological temperature (33.0° C. to 37.0° C.) using whole-cell patch-clamp techniques. Output signals from the patch-clamp amplifier were digitized and low-pass filtered at 2.9 KHz. The recording was controlled with Patchmaster Pro software. The recording chamber with seeded cells was mounted on an inverted microscope stage. A cell in the recording chamber was randomly selected for testing. The cell was continuously perfused from the perfusion system. A micropipette filled with ICS was used as recording electrode in the manual patch-clamp study. The micropipette was prepared on the day of the patch-clamp experiment using glass capillaries (BF150-117-10, SUTTER INSTRUMENT USA). The pipette resistance (Rp) was within 2 to 5 MΩ with ICS filled. From the holding potential of-80 mV, the voltage was increased to +60 mV for 850 ms to open the hERG channels. After that, the voltage was decreased to-50 mV for 1275 ms, causing a “rebound” or tail current, the peak tail current was measured and collected for data analysis. Finally, the voltage was decreased to the holding potential (−80 mV). This command voltage protocol was repeated every 15 s continuously during the test article application.
During the initial recording period with vehicle control working solution, the peak tail current amplitude was monitored until it had been stable for at least 3 sweeps. Cells were then perfused with test article/positive control working solutions until the peak tail current amplitude reached steady state. Steady state was considered reached when three consecutive super-imposable peak tail currents were collected. At this point, cells were once again perfused with next concentration of test article. One or more test articles/positive control or different concentrations of the same test article were tested on each cell with vehicle control washout until the current amplitude returned to values at least 80% of those measured before application of test article. […] At least 2 replicate cells for each concentration were tested. […] (Milnes, J. T., et al.)
Seal criteria: When acquiring whole-cell configuration, a holding potential (e.g.,-80 mV) was applied while membrane parameters were collected (Cm, Rm and Rs). A “good” whole-cell recording was generally defined as: series resistance (Rs) was less than 10 MΩ; membrane resistance (Rm) was more than 500 MΩ and membrane capacitance (Cm) was less than 100 pF. Current amplitude: The peak current amplitude must be between 400 pA and 5000 pA before the test article/positive control application; otherwise the cell was discarded. Leak criteria: At-80 mV holding potential, the absolute leak current value must be less than 200 pA. The amplitude of current was adjusted with leak current at-80 mV. The sweeps which absolute leak current value was more than 200 pA was not used in data analysis.

IL-6 = IL-6 AlphaLISA in LPS-primed THP1 macrophages; conditions: for pIC50 / IC50: Homo sapiens; for pIC50: THP-1, read-out: IL-6 Activity, LPS-primed THP1 macrophages, Table 11 comparison
NLRP3 inflammasome = NLRP3 inflammasome (Homo sapiens, UniProt Q96P20); experiment: NLRP3 inflammasome activation in THP1 macrophages, IL-1β AlphaLISA; conditions: for IC50: IL-1β Activity (nM), PMA, LPS priming, nigericin 6.7 uM activation
Chain of NLRP3 inflammasome (Q96P20 whole entry): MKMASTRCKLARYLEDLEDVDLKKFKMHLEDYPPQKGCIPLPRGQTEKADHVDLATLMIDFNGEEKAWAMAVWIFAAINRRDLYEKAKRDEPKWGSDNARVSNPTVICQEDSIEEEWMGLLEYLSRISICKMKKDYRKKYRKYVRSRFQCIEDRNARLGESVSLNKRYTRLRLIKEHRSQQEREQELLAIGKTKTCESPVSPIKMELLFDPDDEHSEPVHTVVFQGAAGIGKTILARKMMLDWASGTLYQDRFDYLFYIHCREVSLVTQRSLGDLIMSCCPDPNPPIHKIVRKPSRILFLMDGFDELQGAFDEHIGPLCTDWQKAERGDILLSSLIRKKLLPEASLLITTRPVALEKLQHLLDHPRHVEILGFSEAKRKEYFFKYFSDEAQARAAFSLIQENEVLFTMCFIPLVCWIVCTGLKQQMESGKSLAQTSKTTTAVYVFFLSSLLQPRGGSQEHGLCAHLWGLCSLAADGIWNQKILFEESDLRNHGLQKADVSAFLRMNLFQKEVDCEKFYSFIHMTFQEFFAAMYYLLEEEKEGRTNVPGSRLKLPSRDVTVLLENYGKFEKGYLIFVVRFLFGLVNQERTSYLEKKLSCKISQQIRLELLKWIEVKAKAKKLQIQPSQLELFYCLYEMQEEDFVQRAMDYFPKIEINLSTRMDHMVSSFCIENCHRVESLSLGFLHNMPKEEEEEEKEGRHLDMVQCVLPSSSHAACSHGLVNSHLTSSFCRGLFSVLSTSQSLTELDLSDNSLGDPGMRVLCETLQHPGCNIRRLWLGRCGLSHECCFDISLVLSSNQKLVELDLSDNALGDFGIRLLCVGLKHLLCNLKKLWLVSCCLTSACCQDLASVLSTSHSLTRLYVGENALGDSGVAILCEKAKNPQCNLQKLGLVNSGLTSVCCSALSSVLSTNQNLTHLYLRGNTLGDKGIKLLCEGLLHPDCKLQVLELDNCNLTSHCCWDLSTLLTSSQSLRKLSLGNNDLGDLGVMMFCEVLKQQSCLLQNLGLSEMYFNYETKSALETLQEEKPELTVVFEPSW

[1] = IL-1β Activity, THP1 macrophages, Table 11 comparison
[2] = THP-1, read-out: IL-6 Activity (μM), THP1 macrophages, PMA, LPS priming, nigericin 6.7 uM

T1 sequence (Q12809 whole entry): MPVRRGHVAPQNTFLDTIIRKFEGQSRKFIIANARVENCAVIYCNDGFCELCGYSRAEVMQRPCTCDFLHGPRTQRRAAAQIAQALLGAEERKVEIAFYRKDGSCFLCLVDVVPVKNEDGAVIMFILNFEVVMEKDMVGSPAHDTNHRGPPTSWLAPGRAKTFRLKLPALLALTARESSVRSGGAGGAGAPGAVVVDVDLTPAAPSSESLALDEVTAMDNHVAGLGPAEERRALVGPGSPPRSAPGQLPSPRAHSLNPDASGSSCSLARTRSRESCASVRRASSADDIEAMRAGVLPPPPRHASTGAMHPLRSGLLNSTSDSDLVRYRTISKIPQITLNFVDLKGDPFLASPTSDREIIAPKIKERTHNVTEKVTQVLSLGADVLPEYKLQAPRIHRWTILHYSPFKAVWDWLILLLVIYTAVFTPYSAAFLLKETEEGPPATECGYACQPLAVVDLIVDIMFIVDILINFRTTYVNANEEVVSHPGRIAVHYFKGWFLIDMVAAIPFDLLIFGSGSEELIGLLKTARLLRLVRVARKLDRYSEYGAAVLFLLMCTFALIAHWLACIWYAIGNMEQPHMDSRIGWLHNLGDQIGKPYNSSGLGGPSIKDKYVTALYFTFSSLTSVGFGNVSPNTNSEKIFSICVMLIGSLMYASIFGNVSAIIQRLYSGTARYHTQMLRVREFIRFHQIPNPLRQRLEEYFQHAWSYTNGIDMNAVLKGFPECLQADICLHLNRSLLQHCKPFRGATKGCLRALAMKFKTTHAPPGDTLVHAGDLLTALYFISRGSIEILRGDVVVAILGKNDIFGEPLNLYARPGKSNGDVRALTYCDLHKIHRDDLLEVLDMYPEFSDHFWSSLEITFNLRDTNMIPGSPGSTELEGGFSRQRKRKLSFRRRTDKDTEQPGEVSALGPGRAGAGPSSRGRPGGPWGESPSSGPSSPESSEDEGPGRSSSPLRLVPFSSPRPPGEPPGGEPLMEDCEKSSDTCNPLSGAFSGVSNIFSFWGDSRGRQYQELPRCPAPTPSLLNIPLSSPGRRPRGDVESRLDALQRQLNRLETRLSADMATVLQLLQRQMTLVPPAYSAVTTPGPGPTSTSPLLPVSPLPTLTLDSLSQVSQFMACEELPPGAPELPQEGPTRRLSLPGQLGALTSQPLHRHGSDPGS

| SMILES | pIC50 (IL-6) | IL-1ß activity (in words) (NLRP3 inflammasome) | pIC50 (NLRP3 inflammasome; [1]) | IC50 (IL-6; [2]) [µM] | IC50 (NLRP3 inflammasome; THP1 macrophages) [nM] | IC50 (IL-6; THP-1, read-out: IL-6 Activity (μM)) [µM] | pIC50 (NLRP3 inflammasome) | hERG inhibition (in words) (hERG channels) | pIC50 (hERG channels; Table 11 comparison) | pIC50 (hERG channels; 33.0-37.0 °C, Table 10) | IL-6 activity (in words) (IL-6) |
| --- | --- | --- | --- | --- | --- | --- | --- | --- | --- | --- | --- |
| Cc1ccc(-c2nnc(N[C@@H]3CCCN(C)C3)cc2C)c(O)c1 [C, reference compound] | < 5.00 | potent | > 9.00 | – | – | – | – | high | 4.70 to 5.00 | – | – |
| Cc1cccc(O)c1-c1ccc(N[C@@H]2CCCN(C)C2)nn1 [compound 7] | – | – | – | 1 to 5 | 1 to 10 | – | – | – | – | < 4.52 | – |
| Cc1cccc(O)c1-c1ccc(N(C)[C@@H]2CCCN(C)C2)nn1 [compound 21, (R)-3-methyl-2-(6-(methyl (1-methylpiperidin-3-yl)amino)pyridazin-3-yl) phenol] | 5.00 to 5.30 | potent | 7.00 to 8.00 | 5 to 10 | 10 to 100 | – | – | unexpectedly low | < 4.52 | < 4.52 | potent |
| Cc1cc(F)cc(O)c1-c1ccc(N(C)[C@@H]2CCCN(C)C2)nn1 [compound 22] | < 5.00 | potent | 7.00 to 8.00 | > 10 | 10 to 100 | – | – | unexpectedly low | < 4.52 | < 4.52 | potent |
| Cc1cc(O[C@@H]2CCCN(C)C2)nnc1-c1ccc(F)cc1O [compound 34] | – | – | – | – | – | > 10 | 7.00 to 8.00 | – | – | < 4.52 | – |
| Cc1cc(N[C@@H]2CCCN(C)C2)nnc1-c1cccc(C)c1O [compound 67] | – | – | – | 5 to 10 | < 1 | – | – | – | – | 4.70 to 5.00 | – |

Continued, in another order:

| pIC50 (IL-6) | IL-1ß activity (in words) (NLRP3 inflammasome) | pIC50 (NLRP3 inflammasome; [1]) | IC50 (IL-6; [2]) [µM] | IC50 (NLRP3 inflammasome; THP1 macrophages) [nM] | IC50 (IL-6; THP-1, read-out: IL-6 Activity (μM)) [µM] | pIC50 (NLRP3 inflammasome) | SMILES | hERG inhibition (in words) (hERG channels) | pIC50 (hERG channels; Table 11 comparison) | pIC50 (hERG channels; 33.0-37.0 °C, Table 10) | IL-6 activity (in words) (IL-6) |
| --- | --- | --- | --- | --- | --- | --- | --- | --- | --- | --- | --- |
| < 5.00 | potent | – | – | – | – | – | Cc1cc(N[C@@H]2CCCN(C)C2)nnc1-c1ccc(OC(F)(F)F)cc1O [B, reference compound] | high | 5.52 to 6.00 | – | – |
| < 5.00 | potent | – | – | – | – | – | Cc1cc(N[C@@H]2CCCN(C)C2)nnc1-c1ccc(Cl)cc1O [D, reference compound] | high | 5.00 to 5.52 | – | – |
| – | – | – | < 1 | 1 to 10 | – | – | Cc1cc(N[C@@H]2CCCN(C)C2)nnc1-c1ccc(F)cc1O [compound 1] | – | – | 4.52 to 4.70 | – |
| 5.00 to 5.30 | potent | 8.00 to 9.00 | 5 to 10 | 1 to 10 | – | – | Cc1cc(N[C@@H]2CCCN(C)C2)nnc1-c1ccccc1O [compound 2, 2-[4-methyl-6-[[(3R)-1-methyl-3-piperidyl]amino]pyridazin-3-yl]phenol] | unexpectedly low | < 4.52 | < 4.52 | potent |
| 5.00 to 5.30 | – | – | 5 to 10 | – | – | – | Cc1cc(N[C@@H]2CCCN(C)C2)nnc1-c1ccc(C2CC2)cc1O [compound 3] | high | 5.00 to 5.52 | 5.00 to 5.52 | – |
| 5.00 to 5.30 | potent | > 9.00 | 5 to 10 | < 1 | – | – | Cc1cc(N[C@@H]2CCCN(C)C2)nnc1-c1ccc(C#N)cc1O [compound 51] | unexpectedly low | < 4.52 | < 4.52 | potent |
